Results as given in patent publication US20250270191A1, “QUINOLONE BCL6 BIFUNCTIONAL DEGRADERS” (Treeline Biosciences, Inc., priority 2022, published 2025).

These compounds were tested against T1, Human BCL6 protein (N-terminal HiBiT tagged BCL6 in HT1080 cells) (Homo sapiens, UniProt P41182+Q96SW2) (assay: HiBiT based BCL6 degradation assay). Conditions: HT1080 cells expressing N-terminal HiBiT tagged BCL6; 5 hours incubation; BCL6 degradation normalized with DMSO control.
T1 construct: Human BCL6 protein coding open reading frame; expressed in transfected cells; host or cells: HT1080 (ATCC CCL-121), stably transduced with lentivirus pLV-UBC-N-HiBiT-BCL6-PGK-puro
Format: cell-based
Excerpt: Human BCL6 protein coding open reading frame fused with N-terminal HiBiT coding sequence was synthesized from Integrated DNA Technologies (IDT). Next, the N-HiBiT-BCL6 sequence was cloned into pLV-UBC-PGK-Puro, a lentivirus plasmid purchased from Vectorbuilder, to generate pLV-UBC-N-HiBiT-BCL6-PGK-puro. Lentiviral particles were generated from Lenti-X™ 293T cells (Clontech) by co-transfection of pLV-UBC-N-HiBiT-BCL6-PGK-puro plasmids and lentiviral packaging plasmid mix (Cellecta). HT1080 [HT1080] (ATCC CCL-121) cells were infected with the lentivirus, and HT1080 cells stably integrated with the lentiviral vectors were established by incubation with 1 μg/mL puromycin (Thermofisher).
HT1080 cells expressing N-terminal HiBiT tagged BCL6 were dispensed into a 384-well plate pre-spotted with compounds at varying concentrations. Five thousand cells were seeded into each well in 40 μL of RPMI 1640 media plus 10% Fetal Bovine Serum (10082-147, Thermofisher). After 5 hours of incubation at 37° C. with 5% CO2, 30 μL of the NANO-GLO® HiBiT Lytic Detection System working solution (Promega) was added to each well and incubated at room temperature for 15 min. After incubation, luminescence was read on a PHERAstar FSX Plate Reader (BMG). BCL6 degradation at each indicated concentration was normalized with DMSO control. The BCL6 degradation curves were plotted using a four-parameter logistic model.

| Compound | Ymin (5 hr) |
| --- | --- |
| CNC(=O)COc1cc2cc(Nc3nc(N4CCC(CC5CCN(c6ccc7c(C8CCC(=O)NC8=O)nn(C)c7c6)C5)CC4)ncc3Cl)ccc2n(C)c1=O (centres unmarked) [Compound 332, 2-((6-((5-chloro-2-(4-((1-(3-(2,6-dioxopiperidin-3-yl)-1-methyl-1H-indazol-6-yl)pyrrolidin-3-yl)methyl)piperidin-1-yl)pyrimidin-4-yl)amino)-1-methyl-2-oxo-1,2-dihydroquinolin-3-yl)oxy)-N-methylacetamide] | +++ (25% < Ymin ≤ 50%) |
| CNC(=O)COc1cc2cc(Nc3nc(NC[C@H]4CC[C@@H](Nc5ccc6c(C7CCC(=O)NC7=O)nn(C)c6c5)CC4)ncc3Cl)ccc2n(C)c1=O (some centres unmarked) [Compound 289a, 2-((6-((5-chloro-2-((((1s,4s)-4-((3-(2,6-dioxopiperidin-3-yl)-1-methyl-1H-indazol-6-yl)amino)cyclohexyl)methyl)amino)pyrimidin-4-yl)amino)-1-methyl-2-oxo-1,2-dihydroquinolin-3-yl)oxy)-N-methylacetamide] | + (Ymin > 70%) |
| CNC(=O)COc1cc2cc(Nc3nc(N4CC[C@H](COc5ccc6c(C7CCC(=O)NC7=O)nn(C)c6c5)C4)ncc3Cl)ccc2n(C)c1=O (stereo partly drawn) [Compound 313a, 2-((6-((5-chloro-2-((3S)-3-(((3-(2,6-dioxopiperidin-3-yl)-1-methyl-1H-indazol-6-yl)oxy)methyl)pyrrolidin-1-yl)pyrimidin-4-yl)amino)-1-methyl-2-oxo-1,2-dihydroquinolin-3-yl)oxy)-N-methylacetamide] | ++ (50% < Ymin ≤ 70%) |
| CNC(=O)COc1cc2cc(Nc3nc(N4CCC(CNc5ccc(C6CCC(=O)NC6=O)cc5)CC4)ncc3Cl)ccc2n(C)c1=O (centres unmarked) [Compound 265, 2-((6-((5-chloro-2-(4-(((4-(2,6-dioxopiperidin-3-yl)phenyl)amino)methyl)piperidin-1-yl)pyrimidin-4-yl)amino)-1-methyl-2-oxo-1,2-dihydroquinolin-3-yl)oxy)-N-methylacetamide] | ++ (50% < Ymin ≤ 70%) |
| CNC(=O)COc1cc2cc(Nc3nc(NC[C@H]4CC[C@@H](Nc5cccc6c(C7CCC(=O)NC7=O)nn(C)c56)CC4)ncc3Cl)ccc2n(C)c1=O (some centres unmarked) [Compound 304a, 2-((6-((5-chloro-2-((((1s,4s)-4-((3-(2,6-dioxopiperidin-3-yl)-1-methyl-1H-indazol-7-yl)amino)cyclohexyl)methyl)amino)pyrimidin-4-yl)amino)-1-methyl-2-oxo-1,2-dihydroquinolin-3-yl)oxy)-N-methylacetamide] | ++ (50% < Ymin ≤ 70%) |
| CNC(=O)COc1cc2cc(Nc3nc(N4CCN(C(C)(C)C5CCN(c6ccc7c(C8CCC(=O)NC8=O)nn(C)c7c6)CC5)CC4)ncc3Cl)ccc2n(C)c1=O (centres unmarked) [Compound 340, 2-((6-((5-chloro-2-(4-(2-(1-(3-(2,6-dioxopiperidin-3-yl)-1-methyl-1H-indazol-6-yl)piperidin-4-yl)propan-2-yl)piperazin-1-yl)pyrimidin-4-yl)amino)-1-methyl-2-oxo-1,2-dihydroquinolin-3-yl)oxy)-N-methylacetamide] | +++ (25% < Ymin ≤ 50%) |
| CNC(=O)COc1cc2cc(Nc3nc(N4CCC(C(=O)N5CCN(c6cccc7c(C8CCC(=O)NC8=O)nn(C)c67)CC5)CC4)ncc3Cl)ccc2n(C)c1=O (centres unmarked) [Compound 327, 2-((6-((5-chloro-2-(4-(4-(3-(2,6-dioxopiperidin-3-yl)-1-methyl-1H-indazol-7-yl)piperazine-1-carbonyl)piperidin-1-yl)pyrimidin-4-yl)amino)-1-methyl-2-oxo-1,2-dihydroquinolin-3-yl)oxy)-N-methylacetamide] | ++++ (Ymin ≤ 25%) |
| CNC(=O)COc1cc2cc(Nc3nc(N4CCCC5(CCCN(c6ccc7c(C8CCC(=O)NC8=O)nn(C)c7c6)C5)C4)ncc3Cl)ccc2n(C)c1=O (centres unmarked) [Compound 335, 2-((6-((5-chloro-2-(8-(3-(2,6-dioxopiperidin-3-yl)-1-methyl-1H-indazol-6-yl)-2,8-diazaspiro[5.5]undecan-2-yl)pyrimidin-4-yl)amino)-1-methyl-2-oxo-1,2-dihydroquinolin-3-yl)oxy)-N-methylacetamide] | ++ (50% < Ymin ≤ 70%) |
| CNC(=O)COc1cc2cc(Nc3nc(N4CCN(CC5CCN(c6ccc7c(C8CCC(=O)NC8=O)nn(C)c7c6)CC5)CC4)ncc3Cl)ccc2n(C(C)C)c1=O (centres unmarked) [Compound 108, 2-((6-((5-chloro-2-(4-((1-(3-(2,6-dioxopiperidin-3-yl)-1-methyl-1H-indazol-6-yl)piperidin-4-yl)methyl)piperazin-1-yl)pyrimidin-4-yl)amino)-1-isopropyl-2-oxo-1,2-dihydroquinolin-3-yl)oxy)-N-methylacetamide] | +++ (25% < Ymin ≤ 50%) |
| CNC(=O)COc1cc2cc(Nc3nc(N4CCC[C@@H](CCNc5cccc6c(C7CCC(=O)NC7=O)nn(C)c56)C4)ncc3Cl)ccc2n(C)c1=O (stereo in doubt) [Compound 294a, rel-2-((6-((5-chloro-2-((3S)-3-(2-((3-(2,6-dioxopiperidin-3-yl)-1-methyl-1H-indazol-7-yl)amino)ethyl)piperidin-1-yl)pyrimidin-4-yl)amino)-1-methyl-2-oxo-1,2-dihydroquinolin-3-yl)oxy)-N-methylacetamide] | ++ (50% < Ymin ≤ 70%) |
| CNC(=O)COc1cc2cc(Nc3nc(N4CCN(CC5CCN(c6cccc7c(C8CCC(=O)NC8=O)nn(C)c67)CC5)[C@H](C)C4)ncc3Cl)ccc2n(C)c1=O (stereo partly drawn) [Compound 308a, 2-((6-((5-chloro-2-((3R)-4-((1-(3-(2,6-dioxopiperidin-3-yl)-1-methyl-1H-indazol-7-yl)piperidin-4-yl)methyl)-3-methylpiperazin-1-yl)pyrimidin-4-yl)amino)-1-methyl-2-oxo-1,2-dihydroquinolin-3-yl)oxy)-N-methylacetamide] | ++++ (Ymin ≤ 25%) |
| CNC(=O)COc1cc2cc(Nc3nc(N4CCC(CNC(=O)c5cccc(C6CCC(=O)NC6=O)c5)CC4)ncc3Cl)ccc2n(C)c1=O (centres unmarked) [Compound 105, N-((1-(5-chloro-4-((1-methyl-3-(2-(methylamino)-2-oxoethoxy)-2-oxo-1,2-dihydroquinolin-6-yl)amino)pyrimidin-2-yl)piperidin-4-yl)methyl)-3-(2,6-dioxopiperidin-3-yl)benzamide] | ++ (50% < Ymin ≤ 70%) |
| CNC(=O)COc1cc2cc(Nc3nc(N4CCC[C@@H]4CNc4ccc5c(C6CCC(=O)NC6=O)nn(C)c5c4)ncc3Cl)ccc2n(C)c1=O (stereo partly drawn) [Compound 279b, 2-((6-((5-chloro-2-((2R)-2-(((3-(2,6-dioxopiperidin-3-yl)-1-methyl-1H-indazol-6-yl)amino)methyl)pyrrolidin-1-yl)pyrimidin-4-yl)amino)-1-methyl-2-oxo-1,2-dihydroquinolin-3-yl)oxy)-N-methylacetamide] | +++ (25% < Ymin ≤ 50%) |
| CNC(=O)COc1cc2cc(Nc3nc(N4CCCC5(CCCN(c6cccc7c(C8CCC(=O)NC8=O)nn(C)c67)C5)C4)ncc3Cl)ccc2n(C)c1=O (centres unmarked) [Compound 330, 2-((6-((5-chloro-2-(8-(3-(2,6-dioxopiperidin-3-yl)-1-methyl-1H-indazol-7-yl)-2,8-diazaspiro[5.5]undecan-2-yl)pyrimidin-4-yl)amino)-1-methyl-2-oxo-1,2-dihydroquinolin-3-yl)oxy)-N-methylacetamide] | ++ (50% < Ymin ≤ 70%) |
| CNC(=O)COc1cc2cc(Nc3nc(NC[C@H]4CC[C@H](Nc5ccc6c(C7CCC(=O)NC7=O)nn(C)c6c5)CC4)ncc3Cl)ccc2n(C)c1=O (some centres unmarked) [Compound 289b, 2-((6-((5-chloro-2-((((1r,4r)-4-((3-(2,6-dioxopiperidin-3-yl)-1-methyl-1H-indazol-6-yl)amino)cyclohexyl)methyl)amino)pyrimidin-4-yl)amino)-1-methyl-2-oxo-1,2-dihydroquinolin-3-yl)oxy)-N-methylacetamide] | ++++ (Ymin ≤ 25%) |
| CNC(=O)COc1cc2cc(Nc3nc(N4CCC(CN5CCN(c6ccc7c(C8CCC(=O)NC8=O)nn(C)c7c6)CC5)CC4)ncc3Cl)ccc2n(C)c1=O (centres unmarked) [Compound 334, 2-((6-((5-chloro-2-(4-((4-(3-(2,6-dioxopiperidin-3-yl)-1-methyl-1H-indazol-6-yl)piperazin-1-yl)methyl)piperidin-1-yl)pyrimidin-4-yl)amino)-1-methyl-2-oxo-1,2-dihydroquinolin-3-yl)oxy)-N-methylacetamide] | ++++ (Ymin ≤ 25%) |
| CNC(=O)COc1cc2cc(Nc3nc(NC[C@H]4CC[C@H](Nc5cccc6c(C7CCC(=O)NC7=O)nn(C)c56)CC4)ncc3Cl)ccc2n(C)c1=O (some centres unmarked) [Compound 304b, 2-((6-((5-chloro-2-((((1r,4r)-4-((3-(2,6-dioxopiperidin-3-yl)-1-methyl-1H-indazol-7-yl)amino)cyclohexyl)methyl)amino)pyrimidin-4-yl)amino)-1-methyl-2-oxo-1,2-dihydroquinolin-3-yl)oxy)-N-methylacetamide] | ++ (50% < Ymin ≤ 70%) |
